Results from patent US20250215029A1 (Recludix Pharma, Inc., priority 2022, published 2025).

Columns and labels:
[1] = biological target: T1, Recombinant STAT3 protein (STAT3 (G127-I722)) (Homo sapiens, UniProt P40763); assay: STAT3 Fluorescence Polarization (FP) Assay; format: binding; conditions: STAT3 25 nM, probe 5-FAM-GpYLPQTV-NH2 2 nM, 45-minute incubation; read-out: STAT3 (FP assay IC50)
T1 construct: Recombinant STAT3 protein (STAT3 (G127-I722))
Summary of the method: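 Displacement of a fluorescent phosphotyrosine peptide (5-FAM-GpYLPQTV-NH2, 2 nM) from 25 nM recombinant STAT3 G127-I722 was monitored by FP after 45 min at room temperature.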

[2] = biological target: T2, Recombinant STAT6 protein (STAT6 (W123-T658)) (Homo sapiens, UniProt P42226); assay: STAT6 Fluorescence Polarization (FP) Assay; format: binding; conditions: STAT6 250 nM, probe 5-FAM-Ap[…]-NH2 2 nM, 45-minute incubation; read-out: STAT6 (FP assay IC50)
T2 construct: Recombinant STAT6 protein (STAT6 (W123-T658))
T2 sequence (P42226 123-658): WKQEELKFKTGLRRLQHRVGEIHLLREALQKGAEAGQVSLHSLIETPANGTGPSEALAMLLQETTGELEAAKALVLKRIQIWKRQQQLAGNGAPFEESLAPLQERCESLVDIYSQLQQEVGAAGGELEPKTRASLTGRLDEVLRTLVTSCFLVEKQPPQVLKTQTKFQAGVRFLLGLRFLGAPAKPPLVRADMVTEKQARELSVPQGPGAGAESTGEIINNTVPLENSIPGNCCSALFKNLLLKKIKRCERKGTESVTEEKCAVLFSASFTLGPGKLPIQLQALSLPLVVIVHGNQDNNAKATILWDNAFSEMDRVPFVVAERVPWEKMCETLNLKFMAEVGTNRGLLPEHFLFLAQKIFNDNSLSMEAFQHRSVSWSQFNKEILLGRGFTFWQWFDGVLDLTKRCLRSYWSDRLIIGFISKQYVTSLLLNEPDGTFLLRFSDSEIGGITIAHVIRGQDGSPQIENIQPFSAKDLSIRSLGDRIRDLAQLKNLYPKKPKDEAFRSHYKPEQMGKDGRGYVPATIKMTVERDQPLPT
Summary of the method: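 Fluorescence polarization (mP) read-out: 250 nM STAT6 (W123-T658) plus 2 nM 5-FAM phosphotyrosine peptide, 45 min, room temperature, 1% DMSO. IC50 by nonlinear fit of mP against log compound concentration.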

T1 sequence (P40763 127-722): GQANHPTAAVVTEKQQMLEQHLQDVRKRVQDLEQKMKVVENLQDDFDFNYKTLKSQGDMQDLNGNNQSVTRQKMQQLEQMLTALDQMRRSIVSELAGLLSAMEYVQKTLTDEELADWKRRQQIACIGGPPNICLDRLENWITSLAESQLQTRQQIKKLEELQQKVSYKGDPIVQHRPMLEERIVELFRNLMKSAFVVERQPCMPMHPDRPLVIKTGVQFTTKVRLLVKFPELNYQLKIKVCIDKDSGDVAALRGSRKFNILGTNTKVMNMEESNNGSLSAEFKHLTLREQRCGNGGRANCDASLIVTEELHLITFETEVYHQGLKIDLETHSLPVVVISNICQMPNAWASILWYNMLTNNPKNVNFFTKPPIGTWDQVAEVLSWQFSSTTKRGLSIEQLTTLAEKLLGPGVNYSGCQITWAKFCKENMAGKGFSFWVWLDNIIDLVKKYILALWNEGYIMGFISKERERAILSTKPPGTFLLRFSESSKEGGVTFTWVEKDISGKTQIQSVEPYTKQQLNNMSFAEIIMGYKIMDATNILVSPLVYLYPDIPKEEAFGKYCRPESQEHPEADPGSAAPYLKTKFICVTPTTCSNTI

| IC50 [1] [nM] | IC50 [2] [nM] | Structure (SMILES) |
| --- | --- | --- |
| 100 to 1000 | 3000 to 30000 | O=C(N[C@H]1C[C@H](O)CC[C@H]2CC[C@@H](C(=O)N3CC(C(=O)N4CCOCC4)C3)N2C1=O)c1cc2cc(C(F)(F)P(=O)(O)O)ccc2s1 [Compound 3, (difluoro(2-(((3S,6S,8R, 10aR)-8-hydroxy-3-(3-(morpholine-4-carbonyl)azetidine-1-carbonyl)-5-oxodeca-hydropyrrolo[1,2-a]azocin-6-yl)carbamoyl)benzo[b]thiophen-5-yl)methyl)phosphonic acid] |
| 100 to 1000 | 3000 to 30000 | O=C(N[C@H]1C[C@@H](O)CC[C@H]2CC[C@@H](C(=O)N3CC(C(=O)N4CCOCC4)C3)N2C1=O)c1cc2cc(C(F)(F)P(=O)(O)O)ccc2s1 [Compound 4, (difluoro(2-(((3S,6S,8S,10aR)-8-hydroxy-3-(3-(morpholine-4-carbonyl)azetidine-1-carbonyl)-5-oxodecahydropyrrolo [1,2-a]azocin-6-yl)carbamoyl)benzo[b]thiophen-5-yl)methyl) phosphonic acid] |
| 100 to 1000 | 3000 to 30000 | O=C(N[C@H]1CC[C@H](O)C[C@H]2CC[C@@H](C(=O)N3CC(C(=O)N4CCOCC4)C3)N2C1=O)c1cc2cc(C(F)(F)P(=O)(O)O)ccc2s1 [Compound 5, (difluoro(2-(((3S,6S,9S,10aR)-9-hydroxy-3-(3-(morpholine-4-carbonyl)azetidine-1-carbonyl)-5-oxodecahydropyrrolo [1,2-a]azocin-6-yl)carbamoyl)benzo[b]thiophen-5-yl)methyl)phosphonic acid] |
| 100 to 1000 | 3000 to 30000 | O=C(N[C@H]1CC[C@@H](OCc2ccccc2)C[C@H]2CC[C@@H](C(=O)N3CC(C(=O)N4CCOCC4)C3)N2C1=O)c1cc2cc(C(F)(F)P(=O)(O)O)ccc2s1 [Compound 6, ((2-(((3S,6S,9R,10aR)-9-(benzyloxy)-3-(3-(morpholine-4-carbonyl)azetidine-1-carbonyl)-5-oxodecahydropyrrolo [1,2-a]azocin-6-yl)carbamoyl)benzo[b]thiophen-5-yl)difluoromethyl) phosphonic acid] |
| 100 to 1000 | 3000 to 30000 | O=C(N[C@H]1C[C@H](OCc2ccccc2)CC[C@H]2CC[C@@H](C(=O)N3CC(C(=O)N4CCOCC4)C3)N2C1=O)c1cc2cc(C(F)(F)P(=O)(O)O)ccc2s1 [Compound 7, ((2-(((3S,6S,8R, 10aR)-8-(benzyloxy)-3-(3-(morpholine-4-carbonyl)azetidine-1-carbonyl)-5-oxodecahydropyrrolo [1,2-a]azocin-6-yl)carbamoyl)benzo[b]thiophen-5-yl)difluoromethyl) phosphonic acid] |
| 100 to 1000 | 3000 to 30000 | O=C(N[C@H]1C[C@@H](OCc2ccccc2)CC[C@H]2CC[C@@H](C(=O)N3CC(C(=O)N4CCOCC4)C3)N2C1=O)c1cc2cc(C(F)(F)P(=O)(O)O)ccc2s1 [Compound 8, ((2-(((3S,6S,8S,10aR)-8-(benzyloxy)-3-(3-(morpholine-4-carbonyl)azetidine-1-carbonyl)-5-oxodecahydropyrrolo [1,2-a]azocin-6-yl)carbamoyl)benzo [b]thiophen-5-yl)difluoromethyl) phosphonic acid] |
| 100 to 1000 | 3000 to 30000 | CCO[C@@H]1CC[C@H](NC(=O)c2cc3cc(C(F)(F)P(=O)(O)O)ccc3s2)C(=O)N2[C@H](CC[C@H]2C(=O)N2CC(C(=O)N3CCOCC3)C2)C1 [Compound 9, ((2-(((3S,6S,9R,10aR)-9-ethoxy-3-(3-(morpholine-4-carbonyl)azetidine-1-carbonyl)-5-oxodecahydropyrrolo [1,2-a]azocin-6-yl)carbamoyl)benzo[b]thiophen-5-yl)difluoromethyl) phosphonic acid] |
| 100 to 1000 | 3000 to 30000 | CCO[C@H]1CC[C@H]2CC[C@@H](C(=O)N3CC(C(=O)N4CCOCC4)C3)N2C(=O)[C@@H](NC(=O)c2cc3cc(C(F)(F)P(=O)(O)O)ccc3s2)C1 [Compound 10, ((2-(((3S,6S,8S,10aR)-8-ethoxy-3-(3-(morpholine-4-carbonyl)azetidine-1-carbonyl)-5-oxodecahydropyrrolo [1,2-a]azocin-6-yl)carbamoyl)benzo[b]thiophen-5-yl)difluoromethyl) phosphonic acid] |
| 100 to 1000 | 3000 to 30000 | CCO[C@@H]1CC[C@H]2CC[C@@H](C(=O)N3CC(C(=O)N4CCOCC4)C3)N2C(=O)[C@@H](NC(=O)c2cc3cc(C(F)(F)P(=O)(O)O)ccc3s2)C1 [Compound 11, ((2-(((3S,6S,8R,10aR)-8-ethoxy-3-(3-(morpholine-4-carbonyl)azetidine-1-carbonyl)-5-oxodecahydropyrrolo [1,2-a]azocin-6-yl)carbamoyl)benzo[b]thiophen-5-yl)difluoromethyl) phosphonic acid] |
| 1000 to 10000 | ≤ 300 | N#C[C@H]1CN(C(=O)[C@@H]2CC[C@@H]3CC[C@H](O)C[C@H](NC(=O)c4cc5cc(C(F)(F)P(=O)(O)O)ccc5s4)C(=O)N32)C[C@@H]1c1ccccc1 [Compound 12, ((2-(((3S,6S,8S,10aR)-3-((3R,4S)-3-cyano-4-phenylpyrrolidine-1-carbonyl)-8-hydroxy-5-oxodecahydropyrrolo [1,2-a]azocin-6-yl)carbamoyl)benzo[b]thiophen-5-yl)difluoromethyl) phosphonic acid] |
| < 100 | 3000 to 30000 | C[C@]1(O)CC[C@H](NC(=O)c2cc3cc(C(F)(F)P(=O)(O)O)ccc3s2)C(=O)N2[C@H](CC[C@H]2C(=O)N2CC(C(=O)N3CCOCC3)C2)C1 [Compound 13, (difluoro(2-(((3S,6S,9S,10aR)-9-hydroxy-9-methyl-3-(3-(morpholine-4-carbonyl)azetidine-1-carbonyl)-5-oxodecahydropyrrolo [1,2-a]azocin-6-yl)carbamoyl)benzo [b]thiophen-5-yl)methyl) phosphonic acid] |
| < 100 | 300 to 3000 | O=C(N[C@H]1CC[C@H](O)C[C@H]2CC[C@@H](C(=O)N3CC(n4ccnc4)C3)N2C1=O)c1cc2cc(C(F)(F)P(=O)(O)O)ccc2s1 [Compound 15, ((2-(((3S,6S,9S,10aR)-3-(3-(1H-imidazol-1-yl)azetidine-1-carbonyl)-9-hydroxy-5-oxodecahydropyrrolo [1,2-a]azocin-6-yl)carbamoyl)benzo[b]thiophen-5-yl)difluoromethyl) phosphonic acid] |
| < 100 | 300 to 3000 | O=C(N[C@H]1CC[C@H](O)C[C@H]2CC[C@@H](C(=O)N3CC(c4cccnc4)C3)N2C1=O)c1cc2cc(C(F)(F)P(=O)(O)O)ccc2s1 [Compound 16, (difluoro(2-(((3S,6S,9S,10aR)-9-hydroxy-5-oxo-3-(3-(pyridin-3-yl)azetidine-1-carbonyl)decahydropyrrolo[1,2-a]azocin-6-yl)carbamoyl)benzo[b]thiophen-5-yl)methyl) phosphonic acid] |
| < 100 | 3000 to 30000 | C[C@@]1(O)CC[C@H]2CC[C@@H](C(=O)N3CC(C(=O)N4CCOCC4)C3)N2C(=O)[C@@H](NC(=O)c2cc3cc(C(F)(F)P(=O)(O)O)ccc3s2)C1 [Compound 17, (difluoro(2-(((3S,6S,8R,10aR)-8-hydroxy-8-methyl-3-(3-(morpholine-4-carbonyl)azetidine-1-carbonyl)-5-oxodecahydropyrrolo [1,2-a]azocin-6-yl)carbamoyl)benzo[b]thiophen-5-yl)methyl) phosphonic acid] |
| 100 to 1000 | 3000 to 30000 | O=C(N[C@H]1CC[C@H](N2CCC2)C[C@H]2CC[C@@H](C(=O)N3CC(C(=O)N4CCOCC4)C3)N2C1=O)c1cc2cc(C(F)(F)P(=O)(O)O)ccc2s1 [Compound 20, ((2-(((3S,6S,9S,10aR)-9-(azetidin-1-yl)-3-(3-(morpholine-4-carbonyl)azetidine-1-carbonyl)-5-oxodecahydropyrrolo [1,2-a]azocin-6-yl)carbamoyl)benzo[b]thiophen-5-yl)difluoromethyl) phosphonic acid] |
| 100 to 1000 | ≤ 300 | CN(C(=O)[C@@H]1CC[C@@H]2CCCC[C@H](NC(=O)c3cc4cc(C(F)(F)P(=O)(O)O)ccc4s3)C(=O)N21)c1ccc2nnccc2c1 [Compound 24, ((2-(((3S,6S,10aS)-3-(cinnolin-6-yl (methyl)carbamoyl)-5-oxodecahydropyrrolo [1,2-a]azocin-6-yl)carbamoyl)benzo[b]thiophen-5-yl)difluoromethyl) phosphonic acid] |
